Patent US20120034210A1, “COMPOSITIONS FOR POTENTIATING APOPOSIS SIGNALS IN TUMOUR CELLS” (INSTITUT BERGONIE, priority 2008, published 2012)
“Also recorded” adds a separate entry of the source. Peptide text beside a SMILES is read from it. * marks the point of attachment. Cbz = O=C(OCc1ccccc1)*

Columns and labels:
[1] = system: Raji, BL2, Jurkat cell lines and activated PBL; experiment: Apoptosis % by loss of mitochondrial membrane potential; type: cell-based, human; conditions: for induction of cell death via DR4/DR5 with calcium chelation: BL2 cell line, 24 h, prior incubation 15 minutes BAPTA-AM 1 μM
Experimental: 2 to 4.10^4 cells were deposited in wells in a 96-well plate. The cells were incubated, in the presence of the different reactants for the times specified, at 37° C. in a final volume of 100 or 200 μl. The apoptotic cells were identified in the cellular populations by measuring mitochondrial de-polarisation. […] These potentiometric probes allowed monitoring the variations of the mitochondrial membrane potential. […] Following cell treatment with the different drugs, the former were placed in the presence of TMRM or DIOC6 at 10 nM concentration, for 20 minutes at 37° C. then the fluorescence of the cells was analysed by flow cytometry.

[2] = system: T and B leukemia/lymphoma cell lines and activated PBLs treated with FasL; experiment: Fas/CD95-mediated cell death (MTT test); type: cell-based, human; conditions: for sensitivity to the CD95-mediated apoptotic signal (% cell death): down-modulation of extracellular calcium, T and B-cell lines, vs untreated
Experimental: 2 to 4.10^4 cells were deposited in wells in a 96-well plate. The cells were incubated, in the presence of the different reactants for the times specified, at 37° C. in a final volume of 100 or 200 μl.
The MTT test enabled to measure the activity of a mitochondrial enzyme, the dehydrogenase succinate which transforms MTT (or 3-(4,5-dimethylthiazol-2-yl)-2,5-diphenyltetrazolium) bromide originally yellow in colour and soluble, into blue formazan crystals, insoluble in aqueous phase. Upon completion of the different treatments, the living cells were quantified by adding in each well 15 μl PBS (Phosphate Buffered Saline) containing 5 mg/ml MTT. […] Spectrophotometric reading of absorbance was done at 570 nm. The measurement of the optical density is directly proportional to the number of living cells and the percentage of cell death was calculated with the following formula: 100-[(DO treated cells/DO non-treated cells)*100].

[3] = system: DISC macro-complex (Fas/FADD/Caspase-8); experiment: DISC formation: Fas immunoprecipitation and Western blot; type: cell-based, human; conditions: for recruitment of FADD and DISC formation: non-permeant chelators lowering extracellular calcium
Experimental: Cells were incubated with 1 μg/ml APO1-3 for 30 minutes at 4° C. After washing, cells were incubated for 15 minutes at 4° C. (0 minutes) or at 37° C. (15 minutes) and then lysed for 30 minutes at 4° C. in a lysis buffer (25 mM HEPES pH 7.4, 1% Triton X-100, 150 mM NaCl, 2 mM EDTA, a cocktail including protease inhibitors (Sigma)). The lysed cells were then centrifugated for 15 minutes at 15000 rpm in order to eliminate genomic DNA, and the supernatant was kept. The sepharose beads which were coupled with protein A were added to the lysate and the mixture was incubated for 2 hours. The beads were recovered, washed intensively and the immunoprecipitated proteins were re-suspended in a denaturing and reducing buffer (0.01M Tris-HCl pH6.8, 10% glycerol (v/v), 85 mM sodium dodecyl sulfate (SDS), 5% (v/v) […] and 0.005% (w/v) bromophenol blue) then heated at 100° C. for 5 minutes. The samples were deposited in an acrylamide/Bisacrylamide gel and separated by electrophoresis. The proteins were transferred from the gel into a nitrocellulose membrane using a semi-dry medium transfer technique for 2 hours at constant amperage (0.8 mA/cm^2). […] After transfer, the nitrocellulose membrane was saturated with proteins for 30 minutes with a TBST buffer (50 mM Tris pH=8, 0.15M sodium chloride, 0.05% (v/v) Tween-20) containing 5% (w/v) skimmed powdered milk (TBSTM). After washing with TBST, the membrane was incubated for 2 hours with the primary antibody in TBST. The membrane was washed intensively then incubated for one hour with TBST containing the secondary peroxidase-coupled antibody. […] This solution contained a substrate metabolised by peroxidase to yield a luminescent compound, which allowed marking a radiographic film (Amersham).

Raji cells = experiment: Raji B lymphoma tumour growth in Rag2-/-γ-/- mice; type: in vivo; conditions: Raji s.c.; single agent; Rituximab 2 mg/kg, Zoledronate 4 mg/kg
Experimental: The implantation of the tumours was done subcutaneously in Rag2−/−γ−/− mice flank aged from 5 to 7 weeks. Following implantation of the tumours, the mice were divided in groups of 8 to 10 animals for each treatment. The size of the tumour was assessed every day by measuring its width (w) and its length (I). Its volume was calculated according to the formula: V=lw^2/2. At the end of the experiment, the animals were sacrified, the tumour weight was measured.
From 10^6 Raji cells were implanted subcutaneously in mice flank. The effects of Rituximab alone, of Zoledronate alone, are assessed on the growth of tumours. Rituximab (2 mg/kg) was delivered 3 times a week, Zoledronate was delivered 1 time a week.

[4] = system: intracellular calcium concentration; experiment: Intracellular Ca2+ concentration, indo-1 (micro)spectrofluorimetry; type: cell-based, human
Experimental: Principle: [Ca^2+]i was measured by microspectrofluorimetry using a calcium sensitive fluorescent probe: indo-1. When excited at 360 nm wavelength, the so-called monoexcitation/double emission indo-1 probe transmitted back in a spectrum ranging from 400 to 500 nm. Binding of Ca^2+ to indo-1 caused displacement of the emission spectrum after excitation. The emission maximum in the unbound form was located around 480 nm. The emission of the complexed form was around 405 nm. An increase of calcium concentration thus caused the emission to increase to 405 nm and the emission to decrease to 480 nm. The ratio of both fluorescence intensities allowed to be independent from the quantity of the probe and to determine the [Ca^2+]i according to the Grynkiewicz equation:
[Ca^2+]i(nM)=Kd.β×(R−Rmin)/(Rmax−R)
Rmax, Rmin and Kd. β were determined by combining electrophysiology (patch clamp) and spectrofluorimetry. Rmax was determined by placing in the patch pipette a medium containing 10 mM CaCl2. Rmin was obtained by placing as an intrapipette solution a calcium-deprived medium (10 mM EGTA).
The cells were then rinsed with HBSS (800 rpm centrifugation for 2 minutes) and placed in an observation chamber on a glass coverslip. […] The excitation light is supplied by a Xenon lamp (100W). […] The substances to be tested were applied using a glass pipette positioned at some twenty μm of the studied cell and connected to a pneumatic system.
The principle as well as the loading of the cells were identical with the measurement on single cells. In such a case, approx. 40,000 cells were placed in a quartz tub under constant agitation. The tub was then placed in a Hitachi spectrofluorimeter whereof the excitation monochromator was set to 350 nm. […] The signals were transmitted to a computer via an analogue/digital converter. So as to be able to apply the Grynkiewicz equation (see above) and translate the fluorescence ratios measured in calcium values, the calibration parameters were entered into the software. The substances to be tested were applied directly in the tube under constant agitation.

## CC(C)C[C@@H](C=O)NC(=O)[C@H](CC(C)C)NC(=O)[C@H](CC(C)C)NC(=O)OCc1ccccc1 [MG132] (Cbz-Leu-Leu-Leu-aldehyde)
[1]
  induction of cell death via DR4/DR5 with calcium chelation: potentiated by calcium chelation

## O=C(O)CN(CCOCCOCCN(CC(=O)O)CC(=O)O)CC(=O)O [EGTA, glycol-bis(2-aminoethylether)-N,N,N′,N′-tetraacetic acid]
[2]
  sensitivity to the CD95-mediated apoptotic signal (% cell death): increased the sensitivity of T and B-cell lines to the CD95-mediated apoptotic signal
[3]; H9 cells, CD95 stimulation
  recruitment of FADD and DISC formation: enhanced the recruitment of FADD and the DISC formation; also recorded: enhanced recruitment of FADD as well as enhanced DISC formation

## CNCCC(Oc1ccc(C(F)(F)F)cc1)c1ccccc1 (stereo not shown) [fluoxetine]
[1]
  induction of cell death via DR4/DR5 with calcium chelation: potentiated by calcium chelation

## Rituximab: anti-CD20 monoclonal antibody
Raji cells
  tumour mass vs vehicle: not significantly affected
[1]; Raji, defined medium 0.5 mM vs 4 mM calcium
  death signalling and apoptosis induced by Rituximab in low calcium medium: allowed potentiating the death signalling and apoptosis
[1]; Raji, medium 3 mM vs 0.8 mM calcium
  cell death signal induced by Rituximab with added extracellular calcium: inhibited the cell death signal

## Clc1ccc(C(c2ccc(Cl)cc2)n2cc[n+](CC(OCc3ccc(Cl)cc3Cl)c3ccc(Cl)cc3Cl)c2)cc1 (stereo not shown) [calmidazolium]
[2]; calmodulin antagonist or CaMKII inhibitory peptide
  effect on CD95-mediated apoptotic signal: did not alter the CD95-mediated apoptotic signal

## O=C(O)CN(CC(=O)O)c1ccccc1OCCOc1ccccc1N(CC(=O)O)CC(=O)O [BAPTA, 1,2-bis(o-aminophenoxy)ethane-N,N,N′,N′-tetraacetic acid]
[2]
  sensitivity to the CD95-mediated apoptotic signal (% cell death): increased the sensitivity of T and B-cell lines to the CD95-mediated apoptotic signal
[3]; H9 cells, CD95 stimulation
  recruitment of FADD and DISC formation: enhanced the recruitment of FADD and the DISC formation; also recorded: enhanced recruitment of FADD as well as enhanced DISC formation

## Oc1ccc(C=Cc2cc(O)cc(O)c2)cc1 [resveratrol]
[1]
  induction of cell death via DR4/DR5 with calcium chelation: potentiated by calcium chelation

## C[C@H](CCC(=O)O)C[C@H](C)C[C@H](C)C(=O)/C=C(\O)[C@H](C)C[C@H](C)C/C=C/[C@@H](C)[C@@H](O)[C@@H](C)[C@@H](O)C[C@@H]1CC[C@@](C)([C@H]2CC[C@@](C)([C@@H](C)O)O2)O1 [ionomycine]
[3]; H9, Jurkat, activated PBTs, non-cytotoxic concentrations, vs untreated cells
  DISC formation / FADD recruitment upon CD95 stimulation: prevented the recruitment of FADD to CD95 and the DISC formation; also recorded: absence of FADD recruitment and DISC formation
[3]; H9 cells, BAPTA-AM 1-10 μM or ionomycine 1 μM pre-incubation, then anti-Fas APO1-3 1 μg/ml 15 min 37° C., vs untreated cells
  formation of the DISC macro-complex: interfered with the formation of the DISC complex
[3]; H9 cells, ionomycine 1 μM, anti-Fas APO1-3
  FADD binding and activation of caspase-8: decreased the FADD binding and the activation of caspase-8

## C1CCC[C@H]2CCCN3CC[C@@H](CCCCCC[C@@H]4CCCN5CC[C@@H](CC1)O[C@@H]45)O[C@@H]23 [xestospongin C]
[3]; IP3-R antagonist, CD95 stimulation
  FADD binding to CD95: significantly promoted FADD binding to CD95; also recorded: significant increase in FADD binding to CD95

B1: TRAIL: soluble recombinant human TRAIL (TNF-related Apoptosis-Inducing Ligand), binds DR4 or DR5 (protein, UniProt P50591 39-281, looked up)
extracellular domain: TNELKQMQDKYSKSGIACFLKEDDSYWDPNDEESMNSPCWQVKWQLRQLVRKMILRTSEETISTVQEKQQNISPLVRERGPQRVAAHITGTRGRSNTLSSPNSKNEKALGRKINSWESSRSGHSFLSNLHLRNGELVIHEKGFYYIYSQTYFRFQEEIKENTKNDKQMVQYIYKYTSYPDPILLMKSARNSCWSKDAEYGLYSIYQGGIFELKENDRIFVSVTNEHLIDMDHEASFFGAFLVG
modifications: extracellular domain
[1]
  induction of cell death via DR4/DR5 with calcium chelation: potentiated by calcium chelation

B2: CD95L: soluble CD95 ligand (Fas ligand), gp190-CD95L generated by Legembre et al. (protein, UniProt P48023 103-281, looked up)
extracellular domain: QLFHLQKELAELRESTSQMHTASSLEKQIGHPSPPPEKKELRKVAHLTGKSNSRSMPLEWEDTYGIVLLSGVKYKKGGLVINETGLYFVYSKVYFRGQSCNNLPLSHKVYMRNSKYPQDLVMMEGKMMSYCTTGQMWARSSYLGAVFNLTSADHLYVNVSELSLVNFEESQTFFGLYKL
modifications: extracellular domain gp190 fusion
[4]; H9 and Jurkat, rapid and transient, basal level 100 to 150 nM
  intracellular calcium peak upon CD95L: up to 700 nM
[4]; Jurkat CD95-Q257K vs parental cell line
  calcium response to CD95L: the calcium response remained unaltered
[4]; cells devoid of FADD, caspase-8 or caspase-8 and -10
  increase in [Ca2+]i upon CD95L: did not display any modification of the increase in [Ca^2+]i
